Data published in US20200405666A9, “TREATMENT OF SYMPTOMS ASSOCIATED WITH FEMALE GASTROPARESIS” (priority 2011, published 2020).
“Also recorded” adds a separate entry of the source.

Assays:
[1] = Plasma concentration of metoclopramide 30 minutes post-dose, Visit 3 (single dose) and Visit 7 (steady state); assay type: in vivo, human; details: 10 mg and 14 mg IN, Visit 3 and Visit 7, 30 minutes post-dose
Procedure: Pharmacokinetic (PK) blood samples for the determination of metoclopramide concentration were obtained from all subjects on Visit 3, Day 0 (pre-dose and 30 minutes after dosing [single dose]) and at the Final Visit (Day 28) 30 minutes post-dose (steady state).
Pharmacokinetics: The pharmacokinetics (PK) of the study drug was evaluated in all subjects. FIG. 1 summarizes PK data (blood plasma concentration of metoclopramide in ng/mL) for both Treatment Arms (10 mg and 14 mg, intranasal) on visit 3 and visit 7. Individual data are represented by circles and the arithmetic mean and geometric mean of each group is represented by lines. (In each case, the upper line represents the arithmetic mean and the lower line represents the geometric mean.) In FIG. 2, the PK data are analyzed by gender.

[2] = Safety in the clinical study of metoclopramide nasal spray; assay type: in vivo, human; details: 10 mg or 14 mg IN four times daily, four weeks
Procedure: The objectives of this study were to evaluate the safety and the effectiveness of two doses of metoclopramide nasal spray solution, 10 mg and 14 mg, compared to placebo in reducing the symptoms of diabetic gastroparesis and to assess the plasma concentrations of two doses of metoclopramide nasal spray in subjects with diabetic gastroparesis following a single dose and at steady state. The aforementioned dosages for the treatment and control of gastroparesis were administered before meals and/or before bed time. Subjects who met the entry criteria after the Washout Period (Day −7 to Day −1) were randomized using an IVRS, to metoclopramide nasal spray 10 mg, 14 mg, or placebo, in roughly equal numbers (approximately 1:1:1) using a predetermined randomization schedule employing permuted blocks. Randomization was preformed centrally.
The study consisted of up to a 23-day Screening Period, a 7-day Washout Period (Day −7 to Day −1) followed by four weeks of study drug treatment. The total duration of each subject's participation was approximately 8 weeks, 287 subjects were enrolled in the study and were randomized to the following groups: Placebo (n=95), 10 mg intranasal (n=96) and 14 mg intranasal (n=96). Of those subjects enrolled, a total of 259 completed the study (˜90%).

Structure (SMILES): CCN(CC)CCNC(=O)c1cc(Cl)c(N)cc1OC [metoclopramide, -amino-5-chloro-N-(2-(diethylamino)ethyl)-2-methoxybenzamide]
- Difference in PK data (blood plasma concentration) between females and males [1]: no statistical difference; also recorded: not statistically significant
- Dose-limiting toxicities [2]: no dose-limiting toxicities
- Reports of tardive dyskinesia [2]: no reports of tardive dyskinesia
